# Laboratory results as given in ChEMBL document CHEMBL3751713, “Synthesis and Biological Activity of Mono- and Di-N-acylated Aminoglycosides” (ACS Med Chem Lett, 2015).
# Experiments:
# [1] = Drug metabolism assessed as Mycobacterium tuberculosis Eis mediated compound modification at 100 uM; format: ADME
# Pseudomonas aeruginosa = assay: Antimicrobial activity against Gram-negative Pseudomonas aeruginosa PAO1 after 16 to 24 hrs by micro-dilution method; format: functional
# Staphylococcus aureus [2] = assay: Antimicrobial activity against Gram-positive methicillin-resistant Staphylococcus aureus 2 after 16 to 24 hrs by micro-dilution method; format: functional
# Bacillus subtilis = assay: Antimicrobial activity against Gram-positive Bacillus subtilis 168 after 16 to 24 hrs by micro-dilution method; format: functional
# Bacillus anthracis = assay: Antimicrobial activity against Gram-positive Bacillus anthracis str. Sterne after 16 to 24 hrs by micro-dilution method; format: functional
# [3] = Drug metabolism assessed as Escherichia coli AAC(3)-IV mediated compound modification at 100 uM; format: ADME
# [4] = Drug metabolism assessed as Staphylococcus aureus Bifunctional AAC(6')-1e/APH(2'')-1a mediated compound modification at 100 uM; format: ADME
# [5] = target: T1, Aminoglycoside 3'-phosphotransferase (Escherichia coli, UniProt P00551); assay: Drug metabolism assessed as Escherichia coli APH(3')-Ia-mediated compound modification at 100 uM; format: ADME
# T1 sequence (P00551 whole entry): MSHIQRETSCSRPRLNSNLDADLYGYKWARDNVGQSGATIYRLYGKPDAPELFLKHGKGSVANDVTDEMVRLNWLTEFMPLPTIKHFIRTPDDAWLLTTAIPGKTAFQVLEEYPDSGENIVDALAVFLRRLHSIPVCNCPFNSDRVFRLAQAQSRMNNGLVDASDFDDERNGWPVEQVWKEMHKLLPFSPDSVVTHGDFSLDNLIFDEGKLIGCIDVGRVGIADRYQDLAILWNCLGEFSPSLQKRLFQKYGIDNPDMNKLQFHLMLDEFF
# Listeria monocytogenes = assay: Antimicrobial activity against Gram-positive Listeria monocytogenes ATCC 19115 after 16 to 24 hrs by micro-dilution method; format: functional
# Staphylococcus aureus [6] = assay: Antimicrobial activity against Gram-positive methicillin-resistant Staphylococcus aureus 1 after 16 to 24 hrs by micro-dilution method; format: functional
# Haemophilus influenzae = assay: Antimicrobial activity against Gram-negative Haemophilus influenzae ATCC 51907 after 16 to 24 hrs by micro-dilution method; format: functional
# Staphylococcus aureus [7] = assay: Antimicrobial activity against Gram-positive Staphylococcus aureus ATCC 29213 after 16 to 24 hrs by micro-dilution method; format: functional
# [8] = tested on: Mycolicibacterium smegmatis; assay: Antimicrobial activity against Mycobacterium smegmatis MC2-155 after 16 to 24 hrs by micro-dilution method; format: functional; conditions: str. MC2 155
# Bacillus cereus = assay: Antimicrobial activity against Gram-positive Bacillus cereus ATCC 17788 after 16 to 24 hrs by micro-dilution method; format: functional
Compound,Drug metabolism [1],MIC (Pseudomonas aeruginosa) [µg/mL],MIC (Staphylococcus aureus [2]) [µg/mL],MIC (Bacillus subtilis) [µg/mL],MIC (Bacillus anthracis) [µg/mL],Drug metabolism [3],Drug metabolism [4],Drug metabolism [5],MIC (Listeria monocytogenes) [µg/mL],MIC (Staphylococcus aureus [6]) [µg/mL],MIC (Haemophilus influenzae) [µg/mL],MIC (Staphylococcus aureus [7]) [µg/mL],MIC [8] [µg/mL],MIC (Bacillus cereus) [µg/mL]
NCC(=O)NCC[C@H](O)C(=O)N[C@H]1C[C@@H](N)[C@H](O[C@H]2O[C@H](CNC(=O)CN)[C@@H](O)[C@H](O)[C@H]2O)[C@@H](O)[C@@H]1O[C@H]1O[C@H](CO)[C@@H](O)[C@H](N)[C@H]1O (stereo in doubt),metabolite_detected,> 150,> 128,> 150,> 128,metabolite_detected,metabolite_detected,metabolite_notdetected,> 150,> 128,> 150,> 128,64,> 150
N[C@H]1[C@H](O)[C@H](O[C@@H]2[C@@H](O)[C@H](O[C@@H]3O[C@@H](CNC(=O)OCc4ccccc4)[C@H](O)C[C@@H]3N)[C@@H](N)C[C@H]2N)O[C@@H](CO)[C@@H]1O (stereo in doubt),metabolite_detected,> 150,> 128,> 150,64,metabolite_detected,metabolite_detected,metabolite_notdetected,> 150,> 128,75,128,16,> 150
NCC[C@H](O)C(=O)N[C@@H]1C[C@H](N)[C@@H](O[C@H]2O[C@H](CN)[C@@H](O)[C@H](O)[C@H]2O)[C@H](O)[C@H]1O[C@H]1O[C@H](CO)[C@@H](O)[C@H](N)[C@H]1O [AMIKACIN],,2.3,32,37.5,16,,,,9.4,0.5,37.5,1,≤ 0.25,9.4
NC[C@H]1O[C@H](O[C@H]2[C@H](O)[C@@H](O[C@H]3O[C@H](CO)[C@@H](O)[C@H](N)[C@H]3O)[C@H](N)C[C@@H]2N)[C@H](O)[C@@H](O)[C@@H]1O [KANAMYCIN],,37.5,> 128,> 150,> 128,,,,4.7,> 128,9.4,0.5,> 128,9.4
CCN[C@@H]1C[C@H](N)[C@@H](O[C@H]2OC(CN)=CC[C@H]2N)[C@H](O)[C@H]1O[C@H]1OC[C@](C)(O)[C@H](NC)[C@H]1O [NETILMICIN],,2.3,≤ 0.25,4.7,≤ 0.25,,,,2.3,≤ 0.25,2.3,≤ 0.25,≤ 0.25,4.7
CN[C@@H]1[C@@H](O)[C@@H](O[C@@H]2[C@@H](O)[C@H](O[C@H]3OC(CN)=CC[C@H]3N)[C@@H](N)C[C@H]2N)OC[C@]1(C)O [SISOMICIN],,1.2,≤ 0.25,4.7,≤ 0.25,,,,2.3,≤ 0.25,4.7,≤ 0.25,≤ 0.25,9.4
NC[C@H]1O[C@H](O[C@H]2[C@H](O)[C@@H](O[C@H]3O[C@H](CO)[C@@H](O)[C@H](N)[C@H]3O)[C@H](N)C[C@@H]2N)[C@H](N)C[C@@H]1O [TOBRAMYCIN],,0.6,> 128,9.4,> 128,,,,2.3,≤ 0.25,4.7,0.5,≥ 128,9.4
